From patent US20130131034A1, “DERIVATIVES OF AMINOINDANES, THEIR PREPARATION AND THEIR APPLICATION IN THERAPEUTICS” (SANOFI, priority 2010, published 2013)
Where a name gives a salt, the structure may show the parent alone.

Row | Structure (SMILES) | melting point
1 | CS(=O)(=O)c1ccc2c(c1)[C@@H](Oc1ccc(C#N)cc1Cl)[C@H](N1CCC[C@@H](N)C1)C2 (as salt: HCl) [Compound 123, 4-{[(1R,2R)-2-[(3R)-3-aminopiperidin-1-yl]-6-(methylsulfonyl)-2,3-dihydro-1H-inden-1-yl]oxy}-3-chlorobenzonitrile] | 162 °C
2 | CC(C)(N)C1CN([C@@H]2Cc3ccccc3[C@H]2Oc2ccc(C#N)cc2Cl)C1 (as salt: HCl) [Compound 125, 4-({(1R,2R)-2-[3-(2-aminopropan-2-yl)azetidin-1-yl]-2,3-dihydro-1H-inden-1-yl}oxy)-3-chlorobenzonitrile] | 93 °C
3 | COc1ccc2c(c1)[C@@H](Oc1ccc3c(c1)CCC(=O)N3)[C@H](N1CCC[C@@H](N)C1)C2 (as salt: HCl) [Compound 131, 6-({(1R,2R)-2-[(3R)-3-aminopiperidin-1-yl]-6-methoxy-2,3-dihydro-1H-inden-1-yl}oxy)-3,4-dihydroquinolin-2(1H)-one] | 145.6 °C
4 | N[C@@H]1CCCN([C@@H]2Cc3ccccc3[C@H]2Oc2cc3c(cc2Cl)NC(=O)CC3)C1 (as salt: HCl) [Compound 132, 6-({(1R,2R)-2-[(3R)-3-aminopiperidin-1-yl]-2,3-dihydro-1H-inden-1-yl}oxy)-7-chloro-3,4-dihydroquinolin-2(1H)-one] | 183.7 °C
5 | N#Cc1ccc(O[C@@H]2c3cccnc3C[C@H]2N2CCC[C@@H](N)C2)c(Cl)c1 (as salt: HCl) [Compound 137, 4-({(5R,6R)-6-[(3R)-3-aminopiperidin-1-yl]-6,7-dihydro-5H-cyclopenta[b]pyridin-5-yl}oxy)-3-chlorobenzonitrile] | 172 °C
6 | N#Cc1ccc(O[C@@H]2c3ncccc3C[C@H]2N2CCC[C@@H](N)C2)c(Cl)c1 (as salt: HCl) [Compound 138, 4-({(6R,7S)-6-[(3R)-3-aminopiperidin-1-yl]-6,7-dihydro-5H-cyclopenta[b]pyridin-7-yl}oxy)-3-chlorobenzonitrile] | 180 °C
